# Target: Factor D (Homo sapiens, UniProt P00746)
# Experiment: Factor D esterolytic assay
# Assay type: biochemical
# Conditions: substrate Z-Lys-SBzl 1.29 mM, 100 mM HEPES, 500 mM NaCl, pH 7.5, 10% DMSO, tested a minimum of three times
# Description: The IC50 value of a compound (i.e., the concentration of the compound that inhibits 50% of the enzymatic activity) was calculated according to the procedure reported in U.S. Pat. No. 6,653,340 B1, e.g., column 74 (incorporated by reference).
# Specifically, the compounds were dissolved in a stock solution of DMSO at 10.0 or 100 mM. A portion of this stock solution was added to assay buffer in a final volume of 50 μL. Controls included buffer alone and enzyme solutions to which DMSO was added. Substrate was added to the reaction wells immediately or after incubation at room temperature. The reaction rates were measured spectrophotometrically by the generation of product at 405 nm for 600 sec. Background absorbance at 690 nm was measured and subtracted from the absorbance at 405 nm for each well.
# The reaction rate for enzyme alone was compared to the rate of enzyme in the presence of inhibitor and the percent inhibition was calculated as shown below: […]
# An established esterolytic assay for the measurement of Factor D activity and inhibition of Factor D activity was used (Kam, C. M.; McRae, B. J.; Harper, J. W.; Niemann, M. A.; Volanakis, J. E.; Powers, J. C. Human complement proteins D, C2, and B Active site mapping with peptide thioester substrates. J Biol. Chem. 1987, 262, 3444-3451). For this assay Z-Lys-SBzl, 1.29 mM (Kim, S.; Narayana, S. V. L; Volanakis, J. E. Mutational analysis of the substrate binding site of human complement Factor D. Biochemistry. 1994, 33, 14393-14399.) was used as the substrate for Factor D ([…]). Hydrolysis of this compound by Factor D liberated a free sulfhydryl group which is then reacted with 5,5′-dithiobis(2nitrobenzoic acid) producing an intense yellow color (Habeeb, A. F. S. A. Reaction of protein sulfhydryl groups with Ellman's Reagent. Methods in Enzymol. 1976, 25, 457-464). The assays were performed in 96 well microtiter plates and rates of hydrolysis were monitored at 405 nm on a Biotek Synergy H1 plate reader. Hydrolysis rates were reported as change in mOD/min. The assay was conducted in 100 mM HEPES, 500 mM NaCl, pH 7.5 containing 10% DMSO in a final volume of 50 μL per well.
# An IC50, a compound concentration which inhibits 50% of the enzymatic activity, was calculated. Compounds in the examples were tested a minimum of three times.
# Factor D, sequence (P00746 26-253): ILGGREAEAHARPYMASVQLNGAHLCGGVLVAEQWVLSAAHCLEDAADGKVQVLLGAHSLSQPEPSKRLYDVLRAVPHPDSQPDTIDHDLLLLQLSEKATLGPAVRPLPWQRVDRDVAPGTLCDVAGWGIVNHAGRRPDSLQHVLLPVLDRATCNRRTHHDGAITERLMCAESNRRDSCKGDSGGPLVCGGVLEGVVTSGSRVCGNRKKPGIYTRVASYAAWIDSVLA
row,SMILES,IC50 [µM]
1,"COc1ccc(CC(=O)O)c(OCc2cc(-c3cccc(C(N)CF)c3)c3occc3c2)c1 (single isomer, unassigned; (+)) [Compound 14k, (+)-2-(2-((7-(3-(1-amino-2-fluoroethyl)phenyl)benzofuran-5-yl)methoxy)-4-methoxyphenyl)acetic acid]",< 1
2,"NC(CF)c1cccc(-c2cc(COc3cc(F)ccc3CC(=O)O)cc3ccoc23)c1 (single isomer, unassigned; (+)) [Compound 15f, (+)-2-(2-((7-(3-(1-amino-2-fluoroethyl)phenyl)benzofuran-5-yl)methoxy)-4-fluorophenyl)acetic acid]",< 1
3,"NCc1cccc(-c2cc(COc3ccccc3C(NC(=O)C3CC3)C(=O)O)cc3ccoc23)c1 (single isomer, unassigned; (+)) [Compound 52f, (+)-2-(2-((7-(3-(aminomethyl)phenyl)benzofuran-5-yl)methoxy)phenyl)-2-(cyclopropanecarboxamido)acetic acid]",< 1
4,"CCOC(=O)NC(C)c1ccc(CC(=O)O)c(OCc2cc(-c3cccc(CN)c3)c3occc3c2)c1 (single isomer, unassigned; (+)) [Compound 54g, (+)-2-(2-((7-(3-(aminomethyl)phenyl)benzofuran-5-yl)methoxy)-4-(1-(ethoxycarbonylamino)ethyl)phenyl)acetic acid]",< 1
5,"CC(Oc1ccccc1CC(=O)O)c1cc(-c2cccc(CN)c2)c2occc2c1 (single isomer, unassigned; (+)) [Compound 77f, (+)-2-(2-(1-(7-(3-(aminomethyl)phenyl)benzofuran-5-yl)ethoxy)phenyl)acetic acid]",< 1
6,"CCOC(=O)NC(C)c1ccc(CC(=O)O)c(OCc2cc(-c3cccc(CN)c3)c3occc3c2)c1 (single isomer, unassigned; (-)) [Compound 55e, (−)-2-(2-((7-(3-(aminomethyl)phenyl)benzofuran-5-yl)methoxy)-4-(1-((ethoxycarbonyl)amino)ethyl)phenyl)acetic acid]",< 1
7,"CC(N)c1ccc(CC(=O)O)c(OCc2cc(-c3cccc(CN)c3)c3occc3c2)c1 (single isomer, unassigned; (-)) [Compound 61a, (−)-2-(4-(1-aminoethyl)-2-((7-(3-(aminomethyl)phenyl)benzofuran-5-yl)methoxy)phenyl)acetic acid]",< 1
8,"CC(Oc1ccccc1CC(=O)O)c1cc(-c2cccc(CN)c2)c2occc2c1 (single isomer, unassigned; (-)) [Compound 77g, (−)-2-(2-(1-(7-(3-(aminomethyl)phenyl)benzofuran-5-yl)ethoxy)phenyl)acetic acid]",< 1
9,"CCC(N)c1cc(-c2cc(COc3ccccc3CC(=O)O)cc3ccoc23)cs1 (centres unmarked) [Compound 1j, 2-(2-((7-(5-(1-aminopropyl)thiophen-3-yl)benzofuran-5-yl)methoxy)phenyl)acetic acid]",1 to 10
10,"CCC(N)c1cccc(-c2cc(COc3ccccc3CC(=O)O)cc3ccoc23)c1 (centres unmarked) [Compound 2f, 2-(2-((7-(3-(1-aminopropyl)phenyl)benzofuran-5-yl)methoxy)phenyl)acetic acid]",< 1
11,"CC(C)C(N)c1cccc(-c2cc(COc3ccccc3CC(=O)O)cc3ccoc23)c1 (centres unmarked) [Compound 3c, 2-(2-((7-(3-(1-amino-2-methylpropyl)phenyl)benzofuran-5-yl)methoxy)phenyl)acetic acid]",1 to 10
12,"CC(N)c1cc(-c2cc(COc3ccccc3CC(=O)O)cc3ccoc23)cs1 (centres unmarked) [Compound 4c, 2-(2-((7-(5-(1-aminoethyl)thiophen-3-yl)benzofuran-5-yl)methoxy)phenyl)acetic acid]",> 10
13,"NCc1csc(-c2cc(COc3ccccc3CC(=O)O)cc3ccoc23)n1 [Compound 6e, 2-(2-((7-(4-(aminomethyl)thiazol-2-yl)benzofuran-5-yl)methoxy)phenyl)acetic acid]",< 1
14,"NCc1cc(-c2cc(COc3ccccc3CC(=O)O)cc3ccoc23)c[nH]1 [Compound 8g, 2-(2-((7-(5-(aminomethyl)-1H-pyrrol-3-yl)benzofuran-5-yl)methoxy)phenyl)acetic acid]",1 to 10
15,"NCc1cccc(-c2cc(COc3cc(OC(F)(F)F)ccc3CC(=O)O)cc3ccoc23)c1 [Compound 10d, 2-(2-((7-(3-(aminomethyl)phenyl)benzofuran-5-yl)methoxy)-4-(trifluoromethoxy)phenyl)acetic acid]",< 1
16,"NCc1nccc(-c2cc(COc3ccc(F)cc3CC(=O)O)cc3c(C(F)(F)F)coc23)c1F [Compound 11m, 2-(2-((7-(2-(aminomethyl)-3-fluoropyridin-4-yl)-3-(trifluoromethyl)benzofuran-5-yl)methoxy)-5-fluorophenyl)acetic acid]",< 1
17,"CC(=O)c1ccc(CC(=O)O)c(OCc2cc(-c3ccnc(CN)c3F)c3occ(C(F)(F)F)c3c2)c1 [Compound 13f, 2-(4-acetyl-2-((7-(2-(aminomethyl)-3-fluoropyridin-4-yl)-3-(trifluoromethyl)benzofuran-5-yl)methoxy)phenyl)acetic acid]",< 1
18,"CCNCc1cccc(-c2cc(COc3ccccc3CC(=O)O)cc3ccoc23)c1 [Compound 21c, 2-(2-((7-(3-((ethylamino)methyl)phenyl)benzofuran-5-yl)methoxy)phenyl)acetic acid]",< 1

# The remaining lines, values ahead:
row,IC50 [µM],SMILES
1,< 1,"CC(N)c1ccc(CC(=O)O)c(OCc2cc(-c3cccc(CN)c3)c3occc3c2)c1 (single isomer, unassigned; (+)) [Compound 60a, (+)-2-(4-(1-aminoethyl)-2-((7-(3-(aminomethyl)phenyl)benzofuran-5-yl)methoxy)phenyl)acetic acid]"
2,< 1,"NCc1cccc(-c2cc(COc3ccccc3C(NC(=O)C3CC3)C(=O)O)cc3ccoc23)c1 (single isomer, unassigned; (-)) [Compound 51f, (−)-2-(2-((7-(3-(aminomethyl)phenyl)benzofuran-5-yl)methoxy)phenyl)-2-(cyclopropanecarboxamido)acetic acid]"
3,< 1,"NCc1nc(-c2cc(COc3ccccc3CC(=O)O)cc3ccoc23)cs1 [Compound 5e, 2-(2-((7-(2-(aminomethyl)thiazol-4-yl)benzofuran-5-yl)methoxy)phenyl)acetic acid]"
4,1 to 10,"CC(N)c1nc(-c2cc(COc3ccccc3CC(=O)O)cc3ccoc23)cs1 (centres unmarked) [Compound 7e, 2-(2-((7-(2-(1-aminoethyl)thiazol-4-yl)benzofuran-5-yl)methoxy)phenyl)acetic acid]"
5,< 1,"NCc1cccc(-c2cc(COc3cc(C(=O)O)ccc3CC(=O)O)cc3ccoc23)c1 [Compound 9d, 3-((7-(3-(aminomethyl)phenyl)benzofuran-5-yl)methoxy)-4-(carboxymethyl)benzoic acid]"
6,< 1,"COCc1cc2cc(COc3cc(C(C)=O)ccc3CC(=O)O)cc(-c3cccc(CN)c3)c2o1 [Compound 12j, 2-(4-acetyl-2-((7-(3-(aminomethyl)phenyl)-2-(methoxymethyl)benzofuran-5-yl)methoxy)phenyl)acetic acid]"
7,< 1,"NCc1cccc(-c2cc(COc3ccc(F)cc3CC(=O)O)cc3cc(F)oc23)c1 [Compound 16f, 2-(2-((7-(3-(aminomethyl)phenyl)-2-fluorobenzofuran-5-yl)methoxy)-5-fluorophenyl)acetic acid]"
8,< 1,"NCc1nccc(-c2cc(COc3ccc(F)cc3CC(=O)O)cc3cc(F)oc23)c1F [Compound 17d, 2-(2-((7-(2-(aminomethyl)-3-fluoropyridin-4-yl)-2-fluorobenzofuran-5-yl)methoxy)-5-fluorophenyl)acetic acid]"
9,< 1,"NCc1cccc(-c2cc(COc3ccc(F)cc3CC(=O)O)cc3cc(F)oc23)c1F [Compound 18c, 2-(2-((7-(3-(aminomethyl)-2-fluorophenyl)-2-fluorobenzofuran-5-yl)methoxy)-5-fluorophenyl)acetic acid]"
10,< 1,"COC(=O)Nc1ccc(CC(=O)O)c(OCc2cc(-c3cccc(CN)c3)c3occc3c2)c1 [Compound 19i, 2-(2-((7-(3-(aminomethyl)phenyl)benzofuran-5-yl)methoxy)-4-((methoxycarbonyl)amino)phenyl)acetic acid]"
11,< 1,"CC(C)OC(=O)Nc1ccc(CC(=O)O)c(OCc2cc(-c3cccc(CN)c3)c3occc3c2)c1 [Compound 20h, 2-(2-((7-(3-(aminomethyl)phenyl)benzofuran-5-yl)methoxy)-4-((isopropoxycarbonyl)amino)phenyl)acetic acid]"
